Experimental data as given in patent US9770026B2, “Substituted pyrimidine compound and uses thereof” (Shenyang Sinochem Agrochemicals R&D Co., Ltd., priority 2012, dated 2017).

Assays:
cucumber downy mildew = test: protectant activity in vivo against cucumber downy mildew; details: for control effect against cucumber downy mildew (%): protectant activity
carmine spider mite = test: bioactivity test against carmine spider mite, airbrush spray; format: in vivo; details: for control against carmine spider mite: mortality after 72 hrs
How it was run: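 Broadbean seedlings infested with adult mites were sprayed with compound (acetone/methanol stock diluted in 0.1% Tween 80 water) by airbrush at 0.7 kg/cm^2, 0.5 ml. Three replicates were run. Mortality was scored after 72 hrs.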

Diamond back moth = test: insecticidal activity against diamond back moth, airbrush spray; format: in vivo; details: for control (test results against diamond back moth): mortality after 72 hrs
How it was run: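 Airbrush leaf-disc spray test: both faces of 2 cm cabbage discs received 0.5 ml of test solution at 0.7 kg/cm^2. Solutions were made in acetone:methanol (1:1) and brought to concentration with 0.1% Tween 80 in water. Ten second-instar larvae per disc, triplicates, were held at 25° C and 60˜70% R.H., with mortality recorded at 72 hrs.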

corn rust = test: protectant activity in vivo against corn rust; details: for control effect against corn rust (%): protectant activity
armyworm = test: bioactivity test against armyworm, airbrush spray; format: in vivo; details: for control (test results against armyworm): mortality after 72 h
wheat powdery mildew = test: protectant activity in vivo against wheat powdery mildew; details: for control effect against wheat powdery mildew (%): protectant activity
[1] = system: Green peach aphids (Myzus Persicae Sulzer); test: bioactivity test against green peach aphid, airbrush foliar spray; format: in vivo; details: for Insecticidal activity against peach aphid (%): contrastive test; for control (test results against green peach aphid): death rate after 48 hrs
How it was run: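 Aphids (15-30 per cabbage leaf disc) on moist filter paper were airbrush-sprayed at 10 psi, 0.5 mL, with compound from acetone:methanol (1:1) diluted in water with 0.1% tween 80. Held at 25±1 C, 60±5% RH; survivors counted after 48 hrs to give death rates.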

CCc1ncnc(NCCc2ccc(Oc3ccc(C#N)cc3F)cc2)c1Cl [II-482]
protectant activity against cucumber downy mildew in vivo (cucumber downy mildew; 25 ppm): 100% | protectant activity against cucumber downy mildew in vivo (cucumber downy mildew; 50 ppm): 100% | protectant activity against cucumber downy mildew in vivo (cucumber downy mildew; 100 ppm): 100% | protectant activity against cucumber downy mildew in vivo (cucumber downy mildew; 400 ppm): 100% | Insecticidal activity against carmine spider mite (% ) (carmine spider mite; 2.5 mg/L): 93% | Insecticidal activity against carmine spider mite (% ) (carmine spider mite; 5 mg/L): 100% | Insecticidal activity against carmine spider mite (% ) (carmine spider mite; 10 mg/L, contrastive test): 100% | Insecticidal activity against carmine spider mite (% ) (carmine spider mite; 100 mg/L, contrastive test): 100% | Insecticidal activity against carmine spider mite (% ) (carmine spider mite; 600 mg/L, contrastive test): 100% | control against carmine spider mite (carmine spider mite; 5 ppm): 100% | control against carmine spider mite (carmine spider mite; 10 ppm): 100% | control against carmine spider mite (carmine spider mite; 100 ppm): 100% | control against carmine spider mite (carmine spider mite; 600 ppm): 100% | Insecticidal activity against diamond back moth (%) (Diamond back moth; 10 mg/L): 60% | Insecticidal activity against diamond back moth (%) (Diamond back moth; 100 mg/L): 100% | Insecticidal activity against diamond back moth (%) (Diamond back moth; 600 mg/L): 100% | control (test results against diamond back moth) (Diamond back moth; 100 ppm): 100% | control (test results against diamond back moth) (Diamond back moth; 600 ppm): 100% | control effect against corn rust (%) (corn rust; 6.25 mg/L): 100% | control effect against corn rust (%) (corn rust; 25 mg/L): 100% | control effect against corn rust (%) (corn rust; 100 mg/L): 100% | control effect against corn rust (%) (corn rust; 400 mg/L): 100% | protectant activity against corn rust in vivo (corn rust; 6.25 ppm): 100% | protectant activity against corn rust in vivo (corn rust; 25 ppm): 100% | protectant activity against corn rust in vivo (corn rust; 100 ppm): 100% | protectant activity against corn rust in vivo (corn rust; 400 ppm): 100% | Insecticidal activity against armyworm (%) (armyworm; 10 mg/L): 80% | Insecticidal activity against armyworm (%) (armyworm; 100 mg/L): 100% | Insecticidal activity against armyworm (%) (armyworm; 600 mg/L): 100% | control (test results against armyworm) (armyworm; 100 ppm): 100% | control (test results against armyworm) (armyworm; 600 ppm): 100% | control effect against wheat powdery mildew (%) (wheat powdery mildew; 6.25 mg/L): 98% | control effect against wheat powdery mildew (%) (wheat powdery mildew; 25 mg/L): 100% | control effect against wheat powdery mildew (%) (wheat powdery mildew; 100 mg/L): 100% | control effect against wheat powdery mildew (%) (wheat powdery mildew; 400 mg/L): 100% | protectant activity against wheat powdery mildew in vivo (wheat powdery mildew; 25 ppm): 100% | protectant activity against wheat powdery mildew in vivo (wheat powdery mildew; 100 ppm): 100% | protectant activity against wheat powdery mildew in vivo (wheat powdery mildew; 400 ppm): 100% | Insecticidal activity against peach aphid (%) ([1]; 1.25 mg/L): 100% | Insecticidal activity against peach aphid (%) ([1]; 2.5 mg/L): 100% | Insecticidal activity against peach aphid (%) ([1]; 5 mg/L): 100% | Insecticidal activity against peach aphid (%) ([1]; 10 mg/L): 100% | Insecticidal activity against peach aphid (%) ([1]; 100 mg/L): 100% | Insecticidal activity against peach aphid (%) ([1]; 600 mg/L): 100% | control (test results against green peach aphid) ([1]; 2.5 ppm): 100% | control (test results against green peach aphid) ([1]; 5 ppm): 100% | control (test results against green peach aphid) ([1]; 10 ppm): 100% | control (test results against green peach aphid) ([1]; 100 ppm): 100% | control (test results against green peach aphid) ([1]; 600 ppm): 100%

CCc1ncnc(NCCc2ccc(Oc3ccc(Cl)cc3)c(OC)c2)c1Cl [II-1965]
protectant activity against cucumber downy mildew in vivo (cucumber downy mildew; 400 ppm): 100% | control against carmine spider mite (carmine spider mite; 100 ppm): 100% | control against carmine spider mite (carmine spider mite; 600 ppm): 100% | control (test results against diamond back moth) (Diamond back moth; 600 ppm): 100% | protectant activity against corn rust in vivo (corn rust; 400 ppm): 100% | control (test results against armyworm) (armyworm; 600 ppm): 100% | protectant activity against wheat powdery mildew in vivo (wheat powdery mildew; 400 ppm): 100% | Insecticidal activity against peach aphid (%) ([1]; 10 mg/L): 100% | Insecticidal activity against peach aphid (%) ([1]; 100 mg/L): 100% | Insecticidal activity against peach aphid (%) ([1]; 600 mg/L): 100% | control (test results against green peach aphid) ([1]; 10 ppm): 100% | control (test results against green peach aphid) ([1]; 100 ppm): 100% | control (test results against green peach aphid) ([1]; 600 ppm): 100%

Cc1ncnc(NCCc2ccc(Oc3ccccc3)nc2)c1Cl [III-1]
control effect against cucumber downy mildew (%) (cucumber downy mildew; 12.5 mg/L): 100% | control effect against cucumber downy mildew (%) (cucumber downy mildew; 25 mg/L): 100% | control effect against cucumber downy mildew (%) (cucumber downy mildew; 50 mg/L): 100% | control effect against cucumber downy mildew (%) (cucumber downy mildew; 100 mg/L): 100% | control effect against cucumber downy mildew (%) (cucumber downy mildew; 400 mg/L): 100% | protectant activity against cucumber downy mildew in vivo (cucumber downy mildew; 12.5 ppm): 100% | protectant activity against cucumber downy mildew in vivo (cucumber downy mildew; 25 ppm): 100% | protectant activity against cucumber downy mildew in vivo (cucumber downy mildew; 50 ppm): 100% | protectant activity against cucumber downy mildew in vivo (cucumber downy mildew; 100 ppm): 100% | protectant activity against cucumber downy mildew in vivo (cucumber downy mildew; 400 ppm): 100% | control against carmine spider mite (carmine spider mite; 600 ppm): 100% | control (test results against diamond back moth) (Diamond back moth; 600 ppm): 100% | protectant activity against corn rust in vivo (corn rust; 400 ppm): 100% | control (test results against armyworm) (armyworm; 600 ppm): 100% | control effect against wheat powdery mildew (%) (wheat powdery mildew; 6.25 mg/L): 98% | control effect against wheat powdery mildew (%) (wheat powdery mildew; 25 mg/L): 98% | control effect against wheat powdery mildew (%) (wheat powdery mildew; 100 mg/L): 98% | control effect against wheat powdery mildew (%) (wheat powdery mildew; 400 mg/L): 100% | protectant activity against wheat powdery mildew in vivo (wheat powdery mildew; 400 ppm): 100% | control (test results against green peach aphid) ([1]; 600 ppm): 100%
